According to article PMC11371747, “The role of l-leucovorin uptake and metabolism in the modulation of 5-fluorouracil efficacy and antifolate toxicity” (Frontiers in Pharmacology, 2024):

Columns and labels:
[1] = target: T1, folate receptor α (FRα) (Homo sapiens, UniProt P15328); test: Intact cell competitive binding assay, displacement of [3H]-folic acid from FRα in KB cells
T1 construct: endogenous in cells; host or cells: KB cells (FRα++)
Procedure: (§1) In order to determine whether the LV isomers were substrates for either folate receptor α (FRα), RFC and/or PCFT, we used model systems with established overexpression of these receptors or transporters ([Westerhof et al., 1995a]; [Westerhof et al., 1995b]; [Lasry et al., 2008]; [Van der Heijden et al., 2009]).
For FRα we used KB cells ([Westerhof et al., 1995b]). An intact cell binding assay for competitive binding was performed as described previously ([Westerhof et al., 1995a]). Briefly, cells were washed with Hanks balanced salt solution and 6 mM glucose (HBSS, pH 7.4), suspended in 1 mL of this solution (1*10^6 for KB cells) and incubated at 4°C for 15 min with 100 pmol [^3H]-folic acid [(^3H)-FA], in the presence and absence of unlabelled folic acid or LV stereoisomers. Cells were collected by centrifugation and analysed for radioactivity. Relative affinities for FRα were defined as the inverse ratio of compound to displace 50% of radioactive folic acid from FRα. The relative affinity of folic acid was set at 1.

[2] = target: T2, reduced folate carrier (RFC/SLC19A1) (Homo sapiens, UniProt P41440); test: Inhibition of RFC-mediated [3H]-l-LV influx in CEM-7A cells; format: cell-based
T2 construct: CEM-7A cells, which display 30-fold RFC overexpression relative to wild-type CCRF-CEM cells; endogenous in cells; host or cells: CEM-7A (CCRF-CEM variant, RFC+++ 30-fold)
T2 sequence (P41440 1-591): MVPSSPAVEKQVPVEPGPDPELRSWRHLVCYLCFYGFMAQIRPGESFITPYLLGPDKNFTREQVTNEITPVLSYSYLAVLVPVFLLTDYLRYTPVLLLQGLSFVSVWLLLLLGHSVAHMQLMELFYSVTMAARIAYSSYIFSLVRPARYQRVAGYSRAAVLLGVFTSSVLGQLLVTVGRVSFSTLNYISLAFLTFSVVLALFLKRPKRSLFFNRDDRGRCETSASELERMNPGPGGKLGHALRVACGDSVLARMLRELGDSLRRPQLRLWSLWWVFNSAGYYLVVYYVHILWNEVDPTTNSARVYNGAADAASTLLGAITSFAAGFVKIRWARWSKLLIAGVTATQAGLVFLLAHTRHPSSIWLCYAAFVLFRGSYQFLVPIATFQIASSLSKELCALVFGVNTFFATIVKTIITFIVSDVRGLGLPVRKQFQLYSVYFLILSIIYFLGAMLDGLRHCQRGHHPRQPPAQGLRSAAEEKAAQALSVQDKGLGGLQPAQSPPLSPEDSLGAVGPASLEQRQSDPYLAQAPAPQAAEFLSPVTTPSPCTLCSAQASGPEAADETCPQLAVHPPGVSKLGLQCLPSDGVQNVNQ
Procedure: as §1
CEM-7A cells (2 × 10^6) were suspended in 1 mL HBSS and the assay was initiated by addition of 25 μL 200 μM [^3H]-l-LV; 5,000 pmol (i.e., 5 μM final concentration). Incubations proceeded for 2 min at 37°C in the absence and presence of increasing amounts of unlabelled LV/antifolate drug. Blanks consisted of a separate incubation at 4°C or incubation with 100-fold molar excess of unlabelled l-LV. [^3H]-l-LV influx was terminated by adding 9 mL ice-cold HBSS, centrifugation and an additional wash of the cells with 10 mL ice-cold buffer. Cell pellets were then assessed for radioactivity. Relative affinities for RFC are expressed as the concentration of unlabelled drug necessary to inhibit [^3H]-l-LV uptake by 50%.

[3] = tested on: AA8 cells; test: Growth inhibition, SRB assay, AA8 (parental CHO); format: cell-based, Chinese hamster; conditions: for IC50: AA8 parental CHO
Procedure: Briefly, cells were seeded in triplicate in 96-well plates at their pre-established optimal density (CHO cells: 2,500 cells/100 μL; WiDr and HT29: 3,500 cells/100 μL; WiDr-LF/LV, LS174T: 5,000 cells/100 μL; CaCo2, CaCo2-LF/LV, H292, H28 and MSTO-211H: 6,000 cells/100 μL; H460, SW948 and SW1398: 7,000 cells/100 μL) and were allowed to attach for ∼ 24 h at 37°C in 5% CO2 and 100% humidified incubator. Thereafter, 100 μL of drug dilution without LV, or with 5 μM l-LV/5 μM d-LV/10 μM dL-LV (or any LV alone) were added. Cells were allowed to grow for 72 h at 37°C in 5% CO2 and 100% humidity. The t = 0 h control plate consisted of cells plated on the same day as the other cells, but after 24 h at 37°C in 5% CO2 and 100% humidity, only 100 μL medium was added and the cells were fixed immediately with 50% trichloroacetic acid (TCA) in milliQ water (25 μL per well) and put at 4°C for at least 1 h. Plates were washed five times with water and dried. Cells were stained with the SRB protein dye (0.4% (w/v) in 1% acetic acid. Excess dye was washed away four times with 1% acetic acid and plates were dried again. 200 μL of Tris (10 mM Tris (hydroxymethyl)-aminomethane in MQ) was added and optical density (OD) was read at 492 nm after mixing 2–3 min on a plate shaker.

T1 sequence (P15328 25-257): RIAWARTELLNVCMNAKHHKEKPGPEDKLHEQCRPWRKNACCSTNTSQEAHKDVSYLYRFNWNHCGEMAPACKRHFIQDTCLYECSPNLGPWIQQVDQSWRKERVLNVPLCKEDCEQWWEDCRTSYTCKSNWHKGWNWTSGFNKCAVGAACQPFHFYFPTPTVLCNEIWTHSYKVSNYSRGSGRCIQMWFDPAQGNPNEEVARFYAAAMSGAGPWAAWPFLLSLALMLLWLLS

- Molar excess over folic acid required for displacement of [3H]-FA binding from FRα [1]: > 100 fold
- Relative affinity for FRα ([1]; 100 pmol [3H]-FA, inverse ratio of amount of drug displacing 50% of [3H]-FA, FA set to 1): 0.0035
- 50% inhibition of [3H]-l-LV influx (RFC), fold lower concentration than l-LV [2]: 2.5 fold
SMILES: C#CCC(Cc1cnc2nc(N)nc(N)c2n1)c1ccc(C(=O)N[C@@H](CCC(=O)O)C(=O)O)cc1 (stereo partly drawn) [PLX, pralatrexate]
- Protection by l-LV, increase of the IC50 value ([3]; AA8 cells, 5 µM l-LV): 965 fold
- IC50 ([3]; antifolate + 5 µM l-LV): 3670 nM
- IC50 ([3]; Cricetulus griseus, antifolate alone): 3.8 nM
